From paper PMC8568970 (Nature Communications, 2021)
Entries after “also recorded” stand apart in the source; their conditions may differ. Ends that are not written are not given here. * marks the point of attachment. Octanoyl = CCCCCCCC(=O)*

Tests used:
GHSR [1] = conditions: signaling through GHSR, under nutritional or physiological challenges; cited from earlier work
From the text: It mainly signals through the growth hormone secretagogue receptor (GHSR, or ghrelin receptor), a class A G protein-coupled receptor (GPCR). […] In addition, GHSR plays critical role in the mod ...

GHSR mutants [2] = conditions: cited from earlier work
wild type GHSR [3] = test: HTRF competition between dy647-JMV2959 and ghrelin in lipid discs; assay type: binding, human
From the text: (§1) Human GHSR was expressed in E. coli inclusion bodies, folded in amphipol A8-35, and then inserted into lipid nanodiscs formed with MSP1E3D1 and POPC:POPG (3:2 molar ratio) containing or not 10% cholesterol, as described in Damian et al.[54]. After insertion into nanodiscs, active receptor fractions were purified using affinity chromatography with the biotinylated version of the JMV2959 antagonist immobilized on a streptavidin column. GHSR containing disks were separated from aggregates and possible trace amounts of the ligand through a size-exclusion chromatography step on a Superdex 200 increase 10/300 GL column (GE Healthcare) using a 25 mM Na-HEPES, 150 mM NaCl, 0.5 mM EDTA, pH 7.5 buffer as the eluent. GTP turnover was assessed as described previously. All experiments were carried out at 15 °C. The receptor was first incubated with the isolated G protein and, when applicable, the ligand (10 µM) for 30 min in a 25 mM HEPES, 100 mM NaCl, 5 mM MgCl2, pH 7.5 buffer. GTP turnover was then started by adding GTP (5 µM) and GDP (10 µM), and the amount of remaining GTP was assessed after 10 min incubation at 15 °C using the GTPase-Glo assay (Promega). The signal was normalized in each case to that in the absence of receptor (100%).
(§2) Competition ligand-binding assays were performed using the HTRF signal between GHSR labeled with Lumi-4 Tb and the JMV2959 antagonist labeled with dy647. Increasing concentrations in the competing compound were added to a receptor: antagonist mixture (100 nM concentration range). In all cases, the ligand: receptor mixtures were incubated for 30 min at 15 °C and the HTRF signal recorded using a Cary Eclipse spectrofluorimeter (Varian) with an excitation wavelength set at 337 nm and an emission wavelength at 665 and 620 nm. All binding data were analyzed using Prism 8.0.
Supplementary Figure 2. Potential cholesterol binding sites and effects of cholesterol in GHSR signaling. (a) Cryo-EM density maps of two cholesterol molecules modeled in the structure of ghrelin-GHSR-Gi.GHSR is colored in slate. Cholesterol molecules are shown as grey sticks. […]

GHSR mutants [4] = test: HTRF-monitored binding of labeled ghrelin, GHSR mutants (results in words); design: species or system human; conditions: Supplementary Fig. 3b
Procedure: as §2
GHSR mutants. (a) Surface expression levels of GHSR mutants tested in Figure 2. For each GHSR mutant, the expression level was determined by measuring the fluorescence intensity of transfected HEK-293 cells stained with a fluorescent anti-FLAG antibody that could bind to the N-terminal FLAG peptide of each GHSR construct. BG means background, representing results from non-transfected HEK-293 cells. Each column represents results shown as mean ± s.d. from 3 wells of cells transiently transfected with each GHSR mutant. (b) HTRF-monitored binding of […]
POPC:POPG lipid discs. The binding data are presented as variations in the HTRF ratio as a […]
Each data point represents mean ± SD of three […]
ibutamoren (yellow). The receptors are colored in slate and green, respectively. ECL2 and ECL3 show notable conformational differences. […]

GHSR mutants [5] = test: Calcium mobilization assay, GHSR mutants (results in words); assay type: cell-based, human
Procedure: Calcium mobilization assay to measure GHSR signaling was carried out in HEK-293T cells cultured in DMEM supplemented with 10% (vol/vol) FBS (Fisher Scientific). The cDNAs encoding human GHSR was cloned into the pcDNA3.1(+) vector (Invitrogen) with a FLAG peptide fused to the N terminus. Mutant variants were then generated by site-directed mutagenesis and all mutants were fully sequenced. Various GHSR constructs were transfected to HEK-293T cells using FuGENE Transfection Reagent (Promega). The surface expression of wtGHSR and various mutants in HEK-293T cells was determined and confirmed using FACS with a fluorescent FLAG M1 antibody (homemade).
To measure the agonist-induced calcium release, 50 μL dye loading buffer made of Hank’s Balanced Salt Solution (HBSS) with 5 μM Fluo-4 (Sigma), 0.2% pluronicacid, and 1% FBS was added to the GHSR-expressing cells and incubated for 1 h at 37 °C. Cells were then washed twice with HBSS buffer and left at room temperature in 50 μL HBBS. Fluo-4 fluorescence intensity (excitation 480 nm, emission 520 nm) was measured as an indicator of calcium release in a multimode reader (Spark 20 M, TECAN). […] The data were analyzed in GraphPad Prism 8 using the one site dose-response stimulation method. Results were presented as mean ± S.D. from three independent experiments.

[6] = test system: GHSR and Gi signaling pathway; conditions: cited from earlier work
From the text: The GHSR and Gi signaling ...

GHSR [7] = conditions: cited from earlier work
From the text: It mainly signals through the growth hormone secretagogue receptor (GHSR, or ghrelin receptor), a class A G protein-coupled receptor (GPCR). […] The GHSR and Gi signaling ...

wild type GHSR [8] = test: GTP turnover assay for Gi catalyzed by GHSR in nanodiscs; assay type: biochemical, human
From the text: as §1
Supplementary Figure 2. Potential cholesterol binding sites and effects of cholesterol in GHSR signaling. (a) Cryo-EM density maps of two cholesterol molecules modeled in the structure of ghrelin-GHSR-Gi.GHSR is colored in slate. Cholesterol molecules are shown as grey sticks. (b) GTP turnover for Gi catalyzed by wild type GHSR in nanodiscs containing 10% […]
normalized to that obtained for the G protein in the absence of receptor (Gi panels), and data is mean ± SD of five experiments. Statistical values were obtained by means of two-sided […]
loaded receptor, respectively). […]
the absence or presence of 10% cholesterol (molar ratio) into the lipid discs. Each data point represents mean ± SD of three experiments.
(1 picture or pasted object on this page, not shown here)

GHSR mutant R102A = test: Calcium mobilization assay, R102A; assay type: cell-based, human; conditions: Fig. 2f
Procedure: Ghrelin residues are labeled in orange. […] GHSR bound to ibutamoren is colored green. Ibutamoren is shown as yellow sticks. e Ibutamoren binding pocket. f Dose-dependent action of ibutamoren on wtGHSR and mutants. In c and f, agonist-induced GHSR signaling was measured by Ca^2+ mobilization assay. Each data point represents mean ± S.D. from three independent assays. Polar interactions are shown as dashed lines in (a, b, and e).
Calcium mobilization assay to measure GHSR signaling was carried out in HEK-293T cells cultured in DMEM supplemented with 10% (vol/vol) FBS (Fisher Scientific). The cDNAs encoding human GHSR was cloned into the pcDNA3.1(+) vector (Invitrogen) with a FLAG peptide fused to the N terminus. […] The surface expression of wtGHSR and various mutants in HEK-293T cells was determined and confirmed using FACS with a fluorescent FLAG M1 antibody (homemade).
To measure the agonist-induced calcium release, 50 μL dye loading buffer made of Hank’s Balanced Salt Solution (HBSS) with 5 μM Fluo-4 (Sigma), 0.2% pluronicacid, and 1% FBS was added to the GHSR-expressing cells and incubated for 1 h at 37 °C. […] Fluo-4 fluorescence intensity (excitation 480 nm, emission 520 nm) was measured as an indicator of calcium release in a multimode reader (Spark 20 M, TECAN). […] The data were analyzed in GraphPad Prism 8 using the one site dose-response stimulation method. […]

[9] = reconstituted lipid nanodiscs, 10% cholesterol

For “ghrelin: 28-amino acid orexigenic peptide hormone; octanoylation at position-3 serine; endogenous GHSR agonist (Tocris) (GSS(Octanoyl)FLSPEHQRVQQRKESKKPPAKLQPR; UniProt Q9UBU3 24-51, looked up)”, the “growth hormone secretion and food intake” value (GHSR [1]) is listed as “stimulates growth hormone secretion and food intake”, the “potency of ghrelin in activating GHSR, effect of mutations F279, F312, W276” value (GHSR mutants [2]; individual mutations in the aromatic cluster) is listed as “significantly lowered the potency of ghrelin” and the “potency of ghrelin, effect of mutations E124, R283, Q120” value (GHSR mutants [2]; individual mutations to non-polar residues) is listed as “decreased potency of ghrelin”. The “decrease of Kd value for ghrelin in the presence of cholesterol” value (wild type GHSR [3]; 10% cholesterol vs none, lipid discs) was “about 2 fold”, the “ghrelin binding, effect of salt bridge mutations” value (GHSR mutants [4]; E124 and R283 to alanine or glutamine) was “could almost abolish ghrelin binding” and the “affinity of GHSR for ghrelin, effect of alanine mutations” value (GHSR mutants [4]; individual mutations I178, L181, F286 to alanine) was “decreased affinity of GHSR for ghrelin”. For the same compound, the “EC50 of ghrelin in inducing GHSR signaling, effect of the four TM7 proline mutations” value (GHSR mutants [5]; I297P, A298P, Q299P, I300P vs wtGHSR, 3 independent assays) was “didn't significantly affect the EC50s of ghrelin”, the “agonistic action of ghrelin, effect of proline mutations at the extracellular end of TM7” value (GHSR mutants [5]; individual residues E297 to I300 to proline, Supplementary Fig. 4b) was “didn't significantly affect the agonistic action of ghrelin; also recorded: not critical for the agonistic action of ghrelin” and the “GHSR signaling induced by ghrelin, effect of mutations of hydrophobic residues in cavity II” value (GHSR mutants [5]; mutations to larger or polar residues, Fig. 2c) was “compromised GHSR signaling induced by ghrelin”. For the same compound, the glucose-induced insulin release [6] was “attenuated glucose-induced insulin release”.
For “Liver expressed antimicrobial peptide 2 (LEAP2): Liver expressed antimicrobial peptide 2, GHSR inverse agonist or antagonist (MTPFWRGVSLRPIGASCRDDSECITRLCRKRRCSLSVAQE; UniProt Q969E1 38-77, looked up)”, the “pharmacological character at GHSR” value (GHSR [7]) is listed as “GHSR inverse agonist or antagonist”.
With `CC(C)CCC[C@@H](C)[C@H]1CC[C@H]2[C@@H]3CC=C4C[C@@H](O)CC[C@]4(C)[C@H]3CC[C@]12C` [cholesterol] the “effect of cholesterol on GHSR-induced Gi activation” value (wild type GHSR [8]; 10% cholesterol (molar ratio), with and without 10 µM ghrelin, five experiments) was “subtle but significant positive effects”, the “effect of cholesterol on basal activity (GTP turnover)” value (wild type GHSR [8]; no ligand, lower amplitude than in the presence of ghrelin) was “statistically significant effect” and the “effect of cholesterol on activity of GHSR” value (wild type GHSR [8]; [9]) was “positively regulate”. For the same compound, the “effect of cholesterol on affinity of GHSR for ghrelin” value (wild type GHSR [3]; 10% cholesterol, lipid discs (peer review file)) was “slightly increase the affinity of GHSR for ghrelin” and the “effect of cholesterol on binding of ghrelin to GHSR” value (wild type GHSR [3]; [9]) was “positively regulate the binding of ghrelin to GHSR”.
With `CC(C)(N)C(=O)N[C@H](COCc1ccccc1)C(=O)N1CCC2(CC1)CN(S(C)(=O)=O)c1ccccc12` [ibutamoren] the “action of ibutamoren, effect of mutation of R102” value (GHSR mutant R102A) was “compromised action of ibutamoren”.
For `Cc1cc(-c2ccc3c(c2)CC[C@H]3N2CC3(CCN(C(=O)Cc4cn5cc(C)sc5n4)CC3)C2)ncn1` [PF-5190457], the “pharmacological character at GHSR” value (GHSR [7]) is listed as “GHSR inverse agonist”.
